Read-outs that look alike come from different tables or passages of the source.
Legend:
Format in all cases: cell-based
[1] = test system: IL3000 T. congolense (drug sensitive) strain; experiment: In vitro Alamar Blue 72 hrs drug sensitivity assay for T. congolense; settings: Trypanosoma congolense, IL3000 T. congolense bloodstream form, read-out: T. congo Act.
Experimental: In Vitro Alamar Blue 72 Hrs Drug Sensitivity Assay for T. Congolense. Compounds were tested in vitro for chemotherapeutic efficacy against the IL3000 T. congolense (drug sensitive) strain using an Alamar Blue assay. Test compounds were prepared as 10 mg/mL DMSO stocks for each assay run. Compounds were assayed in at least three separate, independent test runs and an 11-point dilution curve was used to determine the IC50 values. Bloodstream form trypanosomes were supported in HMI media containing 20% bovine serum and were incubated with test compounds for 69 hrs at 34° C. in a humidified atmosphere containing 5% CO2. Thereafter, 10 μL of Resazurin dye (12.5 mg in 100 mL of phosphate buffered saline, Sigma-Aldrich, Buchs, Switzerland) were added for an additional 3 hrs. Plates were then read using a fluorescent plate reader (Spectramax, Gemini XS, Bucher Biotec, Basel, Switzerland) using an excitation wavelength of 536 nm and an emission wavelength of 588 nm. Data points were averaged to generate sigmoidal dose-response curves and IC50 values were determined using Softmax Pro 5.2 software.

[2] = test system: STIB 719/ILRAD 560 T. vivax (drug sensitive) strain; experiment: Ex vivo Alamar Blue 48 hrs drug sensitivity assay for T. vivax; settings: Trypanosoma vivax, read-out: T. vivax Act.
Experimental: Ex vivo Alamar Blue48 hrs drug sensitivity assay for T. vivax. Compounds were tested ex vivo for chemotherapeutic efficacy against the STIB 719/ILRAD 560 T. vivax (drug sensitive) strain, using an Alamar Blue assay. Test compounds were prepared as 10 mg/mL DMSO stocks for each assay run. Compounds were assayed in at least three separate, independent test runs and an 11-point dilution curve was used to determine the IC50 values. Bloodstream form trypanosomes were propagated and harvested from a highly parasitaemic mouse (via cardiac puncture) and were incubated with test compounds for 45 hrs at 37° C. in a humidified atmosphere containing 5% CO2, supported in HMI media containing 20% bovine serum. Thereafter, 10 μL of Resazurin dye (12.5 mg in 100 mL of phosphate buffered saline, Sigma-Aldrich, Buchs, Switzerland) were added for an additional 3 hrs. Plates were then read using a fluorescent plate reader (Spectramax, Gemini XS, Bucher Biotec, Basel, Switzerland) using an excitation wavelength of 536 nm and an emission wavelength of 588 nm. Data points were averaged to generate sigmoidal dose-response curves and IC50 values were determined using Softmax Pro 5.2 software.

[3] = test system: STIB 806 K T. evansi (drug sensitive) strain; experiment: In vitro Alamar Blue 72 hrs drug sensitivity assay for T. evansi; settings: read-out: T. evansi Act.
Experimental: In vitro Alamar Blue 72 hrs drug sensitivity assay for T. evansi. Compounds were tested in vitro for chemotherapeutic efficacy against the STIB 806 K T. evansi (drug sensitive) strain, using an Alamar Blue assay. Test compounds were prepared as 10 mg/mL DMSO stocks for each assay run. Compounds were assayed in at least three separate, independent test runs and an 11-point dilution curve was used to determine the IC50 values. Bloodstream form trypanosomes were incubated with test compounds for 69 hrs at 37° C. in a humidified atmosphere containing 5% CO2, supported in HMI media containing 15% horse serum. Thereafter, 10 μL of Resazurin dye (12.5 mg in 100 mL of phosphate buffered saline, Sigma-Aldrich, Buchs, Switzerland) were added for an additional 3 hrs. Plates were then read using a fluorescent plate reader (Spectramax, Gemini XS, Bucher Biotec, Basel, Switzerland) using an excitation wavelength of 536 nm and an emission wavelength of 588 nm. Data points were averaged to generate sigmoidal dose-response curves and IC50 values were determined using Softmax Pro 5.2 software.

[4] = STIB719, STIB 719/ILRAD 560 T. vivax bloodstream form, ex vivo, Alamar Blue, 48 hrs
[5] = STIB 806 K T. evansi bloodstream form, Alamar Blue, 72 hrs

Compound	IC50 [1] [nM]	IC50 [2, 4] [nM]	IC50 [3, 5] [nM]	IC50 ([2]; STIB719, 48 h) [nM]	IC50 ([3]; 72 h) [nM]
CC1(Nc2ncc3nc(Nc4cccc(Cl)c4)n(C4CCC(CN)CC4)c3n2)CCOCC1 (centres unmarked) [A-1, 9-((1s,4s)-4-(aminomethyl)cyclohexyl)-N8-(3-chlorophenyl)-N2-(4-methyltetrahydro-2H-pyran-4-yl)-9H-purine-2,8-diamine]	< 150	< 150	< 150		
CC1(Nc2ncc3nc(Nc4cccc(Cl)c4)n(C4CCC(CN)CC4)c3n2)CCCC1 (centres unmarked) [A-4, 9-((1s,4s)-4-(aminomethyl)cyclohexyl)-N8-(3-chlorophenyl)-N2-(1-methylcyclopentyl)-9H-purine-2,8-diamine]	< 150			< 150	< 150
CN(C)C[C@H]1CC[C@@H](n2c(Nc3cccc(Cl)c3)nc3cnc(NC4(C)CCOCC4)nc32)CC1 [A-5, N8-(3-chlorophenyl)-9-((1s,4s)-4-((dimethylamino)methyl)cyclohexyl)-N2-(4-methyltetrahydro-2H-pyran-4-yl)-9H-purine-2,8-diamine]	< 150	< 150	< 150		
CC1(Nc2ncc3nc(Nc4cccc(Cl)c4)n([C@H]4CC[C@H](CN)CC4)c3n2)CCOCC1 [A-7, 9-((1r,4r)-4-(aminomethyl)cyclohexyl)-N8-(3-chlorophenyl)-N2-(4-methyltetrahydro-2H-pyran-4-yl)-9H-purine-2,8-diamine]	< 150	< 150	< 150		
CC(=O)NC[C@H]1CC[C@@H](n2c(Nc3cccc(Cl)c3)nc3cnc(NC4(C)CCOCC4)nc32)CC1 [A-11, N-(((1s,4s)-4-(8-(3-chlorophenylamino)-2-(4-methyltetrahydro-2H-pyran-4-ylamino)-9H-purin-9-yl)cyclohexyl)methyl)acetamide]	350 to 500	< 150	350 to 500		
CCC(C)(C)Nc1ncc2nc(Nc3cccc(C(F)(F)F)c3)n([C@H]3CC[C@@H](CN)CC3)c2n1 [A-13, 9-((1s,4s)-4-(aminomethyl)cyclohexyl)-N2-tert-pentyl-N8-(3-(trifluoromethyl)phenyl)-9H-purine-2,8-diamine]	< 150	< 150	< 150		
CC1(Nc2ncc3nc(Nc4cccc(C(F)(F)F)c4)n([C@H]4CC[C@@H](CN)CC4)c3n2)CCOCC1 [A-28, 9-((1s,4s)-4-(aminomethyl)cyclohexyl)-N2-(4-methyltetrahydro-2H-pyran-4-yl)-N8-(3-(trifluoromethyl)phenyl)-9H-purine-2,8-diamine]	< 150	< 150	< 150		
CC1(Nc2ncc3nc(Nc4ccnc(C(F)(F)F)c4)n([C@H]4CC[C@@H](CN)CC4)c3n2)CCOCC1 [A-34, 9-((1s,4s)-4-(aminomethyl)cyclohexyl)-N2-(4-methyltetrahydro-2H-pyran-4-yl)-N8-(2-(trifluoromethyl)pyridin-4-yl)-9H-purine-2,8-diamine]	< 150	< 150	< 150		
CC1(Nc2ncc3nc(Nc4cc(Cl)cc(C(F)(F)F)c4)n([C@H]4CC[C@@H](CN)CC4)c3n2)CCOCC1 [A-36, 9-((1s,4s)-4-(aminomethyl)cyclohexyl)-N8-(3-chloro-5-(trifluoromethyl)phenyl)-N2-(4-methyltetrahydro-2H-pyran-4-yl)-9H-purine-2,8-diamine]	< 150	< 150	150 to 350		
CC1(Nc2ncc3nc(Nc4cccc(OC(F)(F)F)c4)n([C@H]4CC[C@@H](CN)CC4)c3n2)CCOCC1 [A-37, 9-((1s,4s)-4-(aminomethyl)cyclohexyl)-N2-(4-methyltetrahydro-2H-pyran-4-yl)-N8-(3-(trifluoromethoxy)phenyl)-9H-purine-2,8-diamine]	< 150	< 150	< 150		
CC1(Nc2ncc3nc(Nc4ccc(OC(F)(F)F)cc4)n([C@H]4CC[C@@H](CN)CC4)c3n2)CCOCC1 [A-38, 9-((1s,4s)-4-(aminomethyl)cyclohexyl)-N2-(4-methyltetrahydro-2H-pyran-4-yl)-N8-(4-(trifluoromethoxy)phenyl)-9H-purine-2,8-diamine]	< 150	< 150	150 to 350		
CC1(Nc2ncc3nc(Nc4cccc(Cl)c4)n([C@H]4CC[C@@H](CN5CCCCC5)CC4)c3n2)CCOCC1 [A-40, N8-(3-chlorophenyl)-N2-(4-methyltetrahydro-2H-pyran-4-yl)-9-((1s,4s)-4-(piperidin-1-ylmethyl)cyclohexyl)-9H-purine-2,8-diamine]	< 150	< 150	< 150		
CC1(Nc2ncc3nc(Nc4cc(Cl)cc(Cl)c4)n([C@H]4CC[C@@H](CN)CC4)c3n2)CCOCC1 [A-43, 9-((1s,4s)-4-(aminomethyl)cyclohexyl)-N8-(3,5-dichlorophenyl)-N2-(4-methyltetrahydro-2H-pyran-4-yl)-9H-purine-2,8-diamine]	< 150	< 150	< 150		
CC1(Nc2ncc3nc(Nc4cc(F)cc(F)c4)n([C@H]4CC[C@@H](CN)CC4)c3n2)CCOCC1 [A-44, 9-((1s,4s)-4-(aminomethyl)cyclohexyl)-N8-(3,5-difluorophenyl)-N2-(4-methyltetrahydro-2H-pyran-4-yl)-9H-purine-2,8-diamine]	< 150	< 150	< 150		
CC1(Nc2ncc3nc(Nc4cc(Cl)ccc4F)n([C@H]4CC[C@@H](CN)CC4)c3n2)CCOCC1 [A-50, 9-((1s,4s)-4-(aminomethyl)cyclohexyl)-N8-(5-chloro-2-fluorophenyl)-N2-(4-methyltetrahydro-2H-pyran-4-yl)-9H-purine-2,8-diamine]	< 150		< 150		
CN(C)C[C@H]1CC[C@@H](n2c(Nc3cccc(C(F)(F)F)c3)nc3cnc(NC4(C)CCOCC4)nc32)CC1 [A-56, 9-((1s,4s)-4-((dimethylamino)methyl)cyclohexyl)-N2-(4-methyltetrahydro-2H-pyran-4-yl)-N8-(3-(trifluoromethyl)phenyl)-9H-purine-2,8-diamine]	< 150		< 150		
NCC1CCC(n2c(Nc3cc(Cl)cc(C(F)(F)F)c3)nc3cnc(NC4CCOCC4)nc32)CC1 (centres unmarked) [B-12, 9-((1s,4s)-4-(aminomethyl)cyclohexyl)-N8-(3-chloro-5-(trifluoromethyl)phenyl)-N2-(tetrahydro-2H-pyran-4-yl)-9H-purine-2,8-diamine]	350 to 500	350 to 500			
CN(C)c1ncc2nc(Nc3cc(C(F)(F)F)ccc3F)n(C3CCC(CN)CC3)c2n1 (centres unmarked) [B-14, 9-((1s,4s)-4-(aminomethyl)cyclohexyl)-N8-(2-fluoro-5-(trifluoromethyl)phenyl)-N2,N2-dimethyl-9H-purine-2,8-diamine]	350 to 500	< 150			
NCC1CCC(n2c(Nc3cc(C(F)(F)F)ccc3F)nc3cnc(N4CCCC4)nc32)CC1 (centres unmarked) [B-15, 9-((1s,4s)-4-(aminomethyl)cyclohexyl)-N-(2-fluoro-5-(trifluoromethyl)phenyl)-2-(pyrrolidin-1-yl)-9H-purin-8-amine]	150 to 350	< 150			
NCC1CCC(n2c(Nc3cc(C(F)(F)F)ccc3F)nc3cnc(NC4CCOCC4)nc32)CC1 (centres unmarked) [B-16, 9-((1s,4s)-4-(aminomethyl)cyclohexyl)-N8-(2-fluoro-5-(trifluoromethyl)phenyl)-N2-(tetrahydro-2H-pyran-4-yl)-9H-purine-2,8-diamine]	350 to 500	< 150			
NCC1CCC(n2c(Nc3cc(Cl)ccc3F)nc3cnc(NC4CCOCC4)nc32)CC1 (centres unmarked) [B-17, 9-((1s,4s)-4-(aminomethyl)cyclohexyl)-N8-(5-chloro-2-fluorophenyl)-N2-(tetrahydro-2H-pyran-4-yl)-9H-purine-2,8-diamine]	< 150	< 150			

Reference: patent publication US10420772B2, “Animal and human anti-trypanosomonal and anti-leishmania agents” (Celgene Corporation, priority 2016, dated 2019)
